Experimental data: patent publication US7880007B2, “Bicyclic substituted phenyl piperidine modulators of muscarinic receptors” (Vertex Pharmaceuticals Incorporated, priority 2004, dated 2011)

Legend:
Format in all cases: cell-based
M4 muscarinic receptor = molecular target: T1, M4 muscarinic receptor (Homo sapiens, UniProt P08173); experiment: Functional mobilization of intracellular calcium (FLIPR), M4-CHO cells; conditions: for M4 Activity: M4-CHO cells, calcium mobilization (FLIPR)
T1 construct: expressed in transfected cells; host or cells: CHO (M4-CHO)
T1 sequence (P08173 1-479): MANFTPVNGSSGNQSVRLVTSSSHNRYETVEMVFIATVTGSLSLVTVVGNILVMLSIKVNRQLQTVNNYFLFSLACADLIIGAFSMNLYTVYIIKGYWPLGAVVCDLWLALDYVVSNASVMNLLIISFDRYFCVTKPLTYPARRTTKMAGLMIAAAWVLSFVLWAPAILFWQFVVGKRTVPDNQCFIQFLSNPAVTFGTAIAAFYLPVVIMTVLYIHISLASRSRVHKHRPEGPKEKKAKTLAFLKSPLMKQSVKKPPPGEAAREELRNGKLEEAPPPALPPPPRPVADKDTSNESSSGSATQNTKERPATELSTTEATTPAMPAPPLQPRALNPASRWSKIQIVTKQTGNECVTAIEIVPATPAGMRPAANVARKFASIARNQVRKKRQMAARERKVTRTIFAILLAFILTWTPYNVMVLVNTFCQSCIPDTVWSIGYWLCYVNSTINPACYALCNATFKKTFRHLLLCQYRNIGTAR
How it was run: (§1)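 Calcium mobilisation read by FLIPR over 60 s (ex 488/em 540 nm) in recombinant muscarinic CHO lines loaded with calcium dye plus 1 mM probenecid. Compounds tested as agonists alone, or as inhibitors against EC80 carbachol after 15 min pre-incubation or co-addition; 0.5% DMSO; efficacy scaled to carbachol maximal response.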

M1 muscarinic receptor = molecular target: T2, M1 muscarinic receptor (Homo sapiens, UniProt P11229); experiment: Functional mobilization of intracellular calcium (FLIPR), M1-CHO cells; conditions: for M1 Activity: M1-CHO cells, calcium mobilization (FLIPR)
T2 construct: expressed in transfected cells; host or cells: CHO (M1-CHO)
T2 sequence (P11229 1-460): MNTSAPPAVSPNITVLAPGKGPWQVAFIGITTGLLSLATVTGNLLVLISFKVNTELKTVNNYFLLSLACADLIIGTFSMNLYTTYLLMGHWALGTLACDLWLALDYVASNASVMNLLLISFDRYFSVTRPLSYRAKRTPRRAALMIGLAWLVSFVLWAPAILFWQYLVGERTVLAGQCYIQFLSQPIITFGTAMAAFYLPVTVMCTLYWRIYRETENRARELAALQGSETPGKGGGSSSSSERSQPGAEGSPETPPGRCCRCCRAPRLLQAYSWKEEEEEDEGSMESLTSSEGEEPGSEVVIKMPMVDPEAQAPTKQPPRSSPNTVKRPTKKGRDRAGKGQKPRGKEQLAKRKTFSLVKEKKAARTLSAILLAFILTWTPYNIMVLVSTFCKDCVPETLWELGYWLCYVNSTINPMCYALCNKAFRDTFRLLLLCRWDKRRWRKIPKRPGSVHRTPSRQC
How it was run: as §1

M2 muscarinic receptor = molecular target: T3, M2 muscarinic receptor (Homo sapiens, UniProt P08172); experiment: Functional mobilization of intracellular calcium (FLIPR), M2-CHO cells; conditions: for M2 Activity: M2-CHO cells, calcium mobilization (FLIPR)
T3 construct: expressed in transfected cells; host or cells: CHO (M2-CHO)
T3 sequence (P08172 1-466): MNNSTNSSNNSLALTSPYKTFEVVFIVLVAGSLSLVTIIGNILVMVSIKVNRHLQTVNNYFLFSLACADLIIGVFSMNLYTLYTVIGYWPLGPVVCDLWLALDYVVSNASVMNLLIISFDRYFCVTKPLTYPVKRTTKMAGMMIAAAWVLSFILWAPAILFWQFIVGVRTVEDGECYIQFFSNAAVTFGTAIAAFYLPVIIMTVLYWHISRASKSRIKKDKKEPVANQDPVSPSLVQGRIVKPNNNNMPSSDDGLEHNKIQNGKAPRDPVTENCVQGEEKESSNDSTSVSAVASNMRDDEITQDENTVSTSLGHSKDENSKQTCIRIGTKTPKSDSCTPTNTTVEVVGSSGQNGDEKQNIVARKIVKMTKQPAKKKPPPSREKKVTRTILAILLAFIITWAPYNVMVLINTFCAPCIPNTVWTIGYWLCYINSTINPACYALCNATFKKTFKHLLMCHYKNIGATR
How it was run: as §1

M3 muscarinic receptor = molecular target: T4, M3 muscarinic receptor (Homo sapiens, UniProt P20309); experiment: Functional mobilization of intracellular calcium (FLIPR), M3-CHO cells; conditions: for M3 Activity: M3-CHO cells, calcium mobilization (FLIPR)
T4 construct: expressed in transfected cells; host or cells: CHO (M3-CHO)
How it was run: as §1

[1] = 100% efficacy = maximum response obtained with the Carbachol control
[2] = 100% efficacy is the maximum response obtained with the Carbachol control

T4 sequence (P20309 whole entry): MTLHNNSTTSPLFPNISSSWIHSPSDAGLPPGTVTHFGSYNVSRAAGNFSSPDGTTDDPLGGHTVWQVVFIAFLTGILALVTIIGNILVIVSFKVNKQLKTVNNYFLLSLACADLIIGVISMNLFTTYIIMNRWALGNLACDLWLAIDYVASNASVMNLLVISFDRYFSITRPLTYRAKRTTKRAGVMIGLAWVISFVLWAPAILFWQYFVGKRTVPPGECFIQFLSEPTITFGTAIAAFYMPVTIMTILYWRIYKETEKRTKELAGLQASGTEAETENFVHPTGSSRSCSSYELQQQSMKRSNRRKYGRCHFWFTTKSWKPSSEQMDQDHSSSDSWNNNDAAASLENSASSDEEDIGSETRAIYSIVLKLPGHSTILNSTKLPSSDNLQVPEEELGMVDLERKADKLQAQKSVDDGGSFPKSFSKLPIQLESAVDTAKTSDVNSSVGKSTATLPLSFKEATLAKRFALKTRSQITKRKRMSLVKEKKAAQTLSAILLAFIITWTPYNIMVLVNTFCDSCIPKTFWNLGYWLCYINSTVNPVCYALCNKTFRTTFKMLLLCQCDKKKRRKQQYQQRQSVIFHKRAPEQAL

| SMILES | Emax (M4 muscarinic receptor; [1]) [%] | Emax (M1 muscarinic receptor; [1]) [%] | Emax (M2 muscarinic receptor; [1]) [%] | Emax (M3 muscarinic receptor; [1]) [%] | Emax (M4 muscarinic receptor; [2]) [%] | Emax (M1 muscarinic receptor; [2]) [%] | Emax (M2 muscarinic receptor; [2]) [%] | Emax (M3 muscarinic receptor; [2]) [%] | M4 Activity (M4 muscarinic receptor) | M1 Activity (M1 muscarinic receptor) | M2 Activity (M2 muscarinic receptor) | M3 Activity (M3 muscarinic receptor) | M4 Efficacy (M4 muscarinic receptor; [1]) | M1 Efficacy (M1 muscarinic receptor; [1]) | M2 Efficacy (M2 muscarinic receptor; [1]) | M3 Efficacy (M3 muscarinic receptor; [1]) |
| --- | --- | --- | --- | --- | --- | --- | --- | --- | --- | --- | --- | --- | --- | --- | --- | --- |
| Cc1ccc(C(F)(F)F)cc1C1CCN(C2CCOCC2)CC1 [Compound 358] | 25 to 100 | 25 to 100 | 25 to 100 | < 25 | – | – | – | – | ++ (activity was measured to be from 1.0 μM to 5.0 μM) | ++ (activity was measured to be from 1.0 μM to 5.0 μM) | + (activity was measured to be greater than 5.0 μM) | + (activity was measured to be greater than 5.0 μM) | – | – | – | – |
| COc1ccc(-c2ccc(C(=O)N(C)C)cc2)cc1C1CCN([C@H]2C[C@H]3CC[C@H]2C3)CC1 [Compound 360] | 25 to 100 | < 25 | < 25 | < 25 | – | – | – | – | ++ (activity was measured to be from 1.0 μM to 5.0 μM) | + (activity was measured to be greater than 5.0 μM) | + (activity was measured to be greater than 5.0 μM) | + (activity was measured to be greater than 5.0 μM) | – | – | – | – |
| CCCON=C1CCC(N2CCC(c3cc(Cl)ccc3OC)CC2)CC1 (stereo not shown) [Compound 362] | – | – | – | – | – | – | – | – | +++ (activity was measured to be less than 1.0 μM) | +++ (activity was measured to be less than 1.0 μM) | ++ (activity was measured to be from 1.0 μM to 5.0 μM) | + (activity was measured to be greater than 5.0 μM) | ++ (efficacy was calculated to be from 100% to 25%) | ++ (efficacy was calculated to be from 100% to 25%) | ++ (efficacy was calculated to be from 100% to 25%) | + (efficacy was calculated to be less than 25%) |
| CCOC(=O)N1[C@@H]2CC[C@@H]1CC(N1CCC(c3cc(C)ccc3OC)CC1)C2 (stereo partly shown) [Compound 363] | 25 to 100 | 25 to 100 | 25 to 100 | 25 to 100 | – | – | – | – | +++ (activity was measured to be less than 1.0 μM) | +++ (activity was measured to be less than 1.0 μM) | +++ (activity was measured to be less than 1.0 μM) | + (activity was measured to be greater than 5.0 μM) | – | – | – | – |
| COc1ccc(-c2cccc(F)c2)cc1C1CCN([C@H]2C[C@H]3CC[C@H]2C3)CC1 [Compound 366] | 25 to 100 | < 25 | < 25 | < 25 | – | – | – | – | + (activity was measured to be greater than 5.0 μM) | + (activity was measured to be greater than 5.0 μM) | + (activity was measured to be greater than 5.0 μM) | + (activity was measured to be greater than 5.0 μM) | – | – | – | – |
| COc1ccc(Cl)cc1C1(F)CCN([C@H]2C[C@H]3CC[C@H]2C3)CC1 [Compound 367] | < 25 | < 25 | < 25 | < 25 | – | – | – | – | + (activity was measured to be greater than 5.0 μM) | + (activity was measured to be greater than 5.0 μM) | + (activity was measured to be greater than 5.0 μM) | + (activity was measured to be greater than 5.0 μM) | – | – | – | – |
| CCOC(=O)N1CCC(N2CCC(F)(c3cc(Cl)ccc3OC)CC2)CC1 [Compound 368] | – | – | – | – | – | – | – | – | +++ (activity was measured to be less than 1.0 μM) | ++ (activity was measured to be from 1.0 μM to 5.0 μM) | ++ (activity was measured to be from 1.0 μM to 5.0 μM) | + (activity was measured to be greater than 5.0 μM) | ++ (efficacy was calculated to be from 100% to 25%) | ++ (efficacy was calculated to be from 100% to 25%) | ++ (efficacy was calculated to be from 100% to 25%) | + (efficacy was calculated to be less than 25%) |
| COc1ccccc1C1CCN(C2CCC(C3CCC(=O)CC3)CC2)CC1 (stereo not shown) [Compound 370] | 25 to 100 | < 25 | < 25 | < 25 | – | – | – | – | ++ (activity was measured to be from 1.0 μM to 5.0 μM) | + (activity was measured to be greater than 5.0 μM) | + (activity was measured to be greater than 5.0 μM) | + (activity was measured to be greater than 5.0 μM) | – | – | – | – |

More lines, main results first:

| Emax (M4 muscarinic receptor; [1]) [%] | Emax (M1 muscarinic receptor; [1]) [%] | Emax (M2 muscarinic receptor; [1]) [%] | Emax (M3 muscarinic receptor; [1]) [%] | Emax (M4 muscarinic receptor; [2]) [%] | Emax (M1 muscarinic receptor; [2]) [%] | Emax (M2 muscarinic receptor; [2]) [%] | Emax (M3 muscarinic receptor; [2]) [%] | SMILES | M4 Activity (M4 muscarinic receptor) | M1 Activity (M1 muscarinic receptor) | M2 Activity (M2 muscarinic receptor) | M3 Activity (M3 muscarinic receptor) | M4 Efficacy (M4 muscarinic receptor; [1]) | M1 Efficacy (M1 muscarinic receptor; [1]) | M2 Efficacy (M2 muscarinic receptor; [1]) | M3 Efficacy (M3 muscarinic receptor; [1]) |
| --- | --- | --- | --- | --- | --- | --- | --- | --- | --- | --- | --- | --- | --- | --- | --- | --- |
| 25 to 100 | 25 to 100 | < 25 | < 25 | – | – | – | – | COc1ccc(-c2ccc(C(C)(C)C#N)cc2)cc1C1CCN(C2CC3CCC(C3)C2)CC1 (stereo not shown) [Compound 361] | + (activity was measured to be greater than 5.0 μM) | + (activity was measured to be greater than 5.0 μM) | + (activity was measured to be greater than 5.0 μM) | + (activity was measured to be greater than 5.0 μM) | – | – | – | – |
| 25 to 100 | 25 to 100 | < 25 | < 25 | – | – | – | – | CCOC(=O)N1CCC(CN2CCC(c3ccc(F)cc3OC)CC2)CC1 [Compound 364] | +++ (activity was measured to be less than 1.0 μM) | +++ (activity was measured to be less than 1.0 μM) | + (activity was measured to be greater than 5.0 μM) | + (activity was measured to be greater than 5.0 μM) | – | – | – | – |
| 25 to 100 | 25 to 100 | 25 to 100 | < 25 | – | – | – | – | CCCC1CCC(N2CCC(F)(c3cc(Cl)ccc3OC)CC2)CC1 (stereo not shown) [Compound 365] | + (activity was measured to be greater than 5.0 μM) | + (activity was measured to be greater than 5.0 μM) | + (activity was measured to be greater than 5.0 μM) | + (activity was measured to be greater than 5.0 μM) | – | – | – | – |
| 25 to 100 | 25 to 100 | < 25 | < 25 | – | – | – | – | COc1ccccc1C1CCN(CC2CCOC2)CC1 (stereo not shown) [Compound 369] | ++ (activity was measured to be from 1.0 μM to 5.0 μM) | + (activity was measured to be greater than 5.0 μM) | + (activity was measured to be greater than 5.0 μM) | + (activity was measured to be greater than 5.0 μM) | – | – | – | – |
| 25 to 100 | 25 to 100 | 25 to 100 | < 25 | – | – | – | – | COc1ccc(F)cc1C1CCN(C2CC3CCC2C3)CC1 (stereo not shown) [Compound 371] | +++ (activity was measured to be less than 1.0 μM) | ++ (activity was measured to be from 1.0 μM to 5.0 μM) | ++ (activity was measured to be from 1.0 μM to 5.0 μM) | + (activity was measured to be greater than 5.0 μM) | – | – | – | – |
| – | – | – | – | 25 to 100 | 25 to 100 | 25 to 100 | < 25 | COc1ccc(Cl)cc1C1CCN(C2(C)CCOCC2)CC1 [Compound 372] | +++ (activity was measured to be less than 1.0 μM) | ++ (activity was measured to be from 1.0 μM to 5.0 μM) | ++ (activity was measured to be from 1.0 μM to 5.0 μM) | + (activity was measured to be greater than 5.0 μM) | – | – | – | – |
